Values quoted from earlier work in US6211219A, “Aminocyclohexane derivatives as 5-HT receptor agonists” (Merck Sharp & Dohme Ltd., priority 1996, dated 2001).

What was measured:
humans = conditions: therapeutic doses
[1] = tested on: human 5-HT1Dα and 5-HT1Dβ receptor subtypes; conditions: cf. WO-A-91/17174, Table 1

CNS(=O)(=O)Cc1ccc2[nH]cc(CCN(C)C)c2c1 [sumatriptan]
adverse cardiovascular events on administration to humans (humans): certain adverse cardiovascular events
discrimination between the human 5-HT1Dα and 5-HT1Dβ receptor subtypes [1]: barely discriminates
